Measured values taken from US20160129122A1, “FATTY ACID ANTIVIRAL CONJUGATES AND THEIR USES” (Catabasis Pharmaceuticals, Inc., priority 2011, published 2016).
Where two headings read alike, the source gives them in different places.

Assays:
NF-κB = NF-κB luciferase reporter assay in LPS-stimulated RAW 264.7 macrophages; type: cell-based; conditions: Mus musculus
Description: RAW 264.7 cells stably expressing a 3×NFkB response element-drive luciferase reporter were seeded into 96 well plates in sera-free medium (Optimem) 18 hours prior to compound application. Compounds of the invention were prepared by first making 100 mM stock solutions in EtOH. […] Cells were then stimulated with 200 ng/ml LPS or vehicle control for 3 hours in the presence of the compounds of the invention. A set of six vehicles was left unstimulated with LPS in order to measure the assay floor. AlamarBlue viability dye (Invitrogen) was added to cells simultaneously with the delivery of LPS (final AlamarBlue concentration of 10%). After the 3 h incubation period with LPS, cell viability was measured by reading fluorescence (excitation 550 nm, emission 595 nm) with a Perkin Elmer Victor V plate reader. Then cell media was aspirated from each well. Luciferase signal was then developed by addition of the Britelite Plus reagent (Perkin Elmer). Luciferase activity was measured with the Perkin Elmer Victor V plate reader. NF-κB activity was expressed as a percent of the vehicle control wells (stimulated with LPS). Compounds were tested at 6 dose point titrations in triplicate to determine IC50 values.

HIV-1IIIB strain = test: HIV-1 cytoprotection assay (CEM-SS cells, MTS dye reduction); type: cell-based
[1] = RAW264.7, RAW 264.7 cells with 3×NFkB response element luciferase reporter, 2 h pretreatment, 200 ng/ml LPS for 3 h, read-out: NF-kB inhibitory activity IC50
[2] = Human immunodeficiency virus 1, 144 h, CEM-SS cells, HIV-1 IIIB strain, 6 days incubation, cytoprotection by MTS, read-out: IC50 HIV-1IIIB strain
[3] = RAW264.7, read-out: NF-kB inhibitory activity IC50 μM
[4] = Human immunodeficiency virus 1, IIIB, CEM-SS, 144 h, read-out: IC50 HIV-1IIIB strain (nM)

SMILES | IC50 (NF-κB; [1]) [µM] | IC50 (HIV-1IIIB strain; [2]) [nM] | IC50 (NF-κB; [3]) [µM] | IC50 (HIV-1IIIB strain; [4]) [nM]
CC/C=C\C/C=C\C/C=C\C/C=C\C/C=C\C/C=C\CCC(=O)NCCNC(=O)OC[C@H]1OC(n2cc(C)c(=O)[nH]c2=O)C[C@@H]1N=[N+]=[N-] (stereo partly shown) [Compound V-5] | < 50 | > 100 |  | 
CC/C=C\C/C=C\C/C=C\C/C=C\C/C=C\C/C=C\CCC(=O)NCCOCCNC(=O)OC[C@H]1OC(n2cc(C)c(=O)[nH]c2=O)C[C@@H]1N=[N+]=[N-] (stereo partly shown) [Compound V-8] | 50 to 200 |  |  | 
CC/C=C\C/C=C\C/C=C\C/C=C\C/C=C\C/C=C\CCC(=O)Nc1ccn(C2CS[C@H](CO)O2)c(=O)n1 (stereo partly shown) [Compound V-18] | > 200 | < 100 |  | 
CC/C=C\C/C=C\C/C=C\C/C=C\C/C=C\C/C=C\CCC(=O)NCCNC(=O)OC[C@@H]1OC(n2ccc(N)nc2=O)CS1 (stereo partly drawn) [Compound V-21, ((2R,5S)-5-(4-amino-2-oxopyrimidin-1(2H)-yl)-1,3-oxathiolan-2-yl)methyl(2-((4Z,7Z,10Z,13Z,16Z,19Z)-docosa-4,7,10,13,16,19-hexaenamido)ethyl)carbamate] |  |  | 50 to 200 | < 100
CC(C)CN(C[C@@H](O)[C@H](Cc1ccccc1)NC(=O)O[C@H]1CO[C@H]2OCC[C@H]21)S(=O)(=O)c1ccc(N)cc1 [Darunavir, darunavir, reference compound] |  |  | > 200 | 
CC/C=C\C/C=C\C/C=C\C/C=C\C/C=C\C/C=C\CCC(=O)NCCNP(=O)(OC[C@H]1OC(n2cc(C)c(=O)[nH]c2=O)C[C@@H]1N=[N+]=[N-])Oc1ccccc1 (stereo partly shown) [II-25] |  |  | < 50 | < 100
CC/C=C\C/C=C\C/C=C\C/C=C\C/C=C\CCCC(=O)NCCNP(=O)(OC)OC[C@H]1OC(n2cc(C)c(=O)[nH]c2=O)C[C@@H]1N=[N+]=[N-] (stereo partly shown) [II-30] |  |  | < 50 | > 100
C=C1[C@H](COP(=O)(NCCNC(=O)CCC/C=C\C/C=C\C/C=C\C/C=C\C/C=C\CC)OC)[C@@H](O)C[C@@H]1n1cnc2c(=O)nc(N)[nH]c21 (stereo partly drawn) [II-48, ((1R,3S,5S)-3-(2-amino-6-oxo-3H-purin-9(6H)-yl)-5-hydroxy-2-methylenecyclopentyl)methyl methyl (2-((5Z,8Z,11Z,14Z,17Z)-icosa-5,8,11,14,17-pentaenamido)ethyl)phosphoramidate] |  |  | 50 to 200 | 
CC/C=C\C/C=C\C/C=C\C/C=C\C/C=C\C/C=C\CCC(=O)NCCNP(=O)(OC[C@@H]1O[C@H](n2ccc(N)nc2=O)CS1)Oc1ccccc1 (stereo partly drawn) [II-67, ((2R,5S)-5-(4-amino-2-oxopyrimidin-1(2H)-yl)-1,3-oxathiolan-2-yl)methyl phenyl (2-((4Z,7Z,10Z,13Z,16Z,19Z)-docosa-4,7,10,13,16,19-hexaenamido)ethyl)phosphoramidate] |  |  | < 50 | < 100
CC/C=C\C/C=C\C/C=C\C/C=C\C/C=C\CCCC(=O)NCCNP(=O)(OC)OC[C@@H]1O[C@H](n2ccc(N)nc2=O)CS1 (stereo partly drawn) [II-70, ((2R,5S)-5-(4-amino-2-oxopyrimidin-1(2H)-yl)-1,3-oxathiolan-2-yl)methyl methyl (2-((5Z,8Z,11Z,14Z,17Z)-icosa-5,8,11,14,17-pentaenamido)ethyl)phosphoramidate] |  |  | 50 to 200 | 
CC/C=C\C/C=C\C/C=C\C/C=C\C/C=C\C/C=C\CCC(=O)Nc1ccc(S(=O)(=O)N(CC(C)C)C[C@@H](O)[C@H](Cc2ccccc2)NC(=O)O[C@H]2CO[C@H]3OCC[C@H]32)cc1 [VII-1, (3R,3aS,6aR)-hexahydrofuro[2,3-b]furan-3-yl((2S,3R)-4-(4-((4Z,7Z,10Z,13Z,16Z,19Z)-docosa-4,7,10,13,16,19-hexaenamido)-N-isobutylphenylsulfonamido)-3-hydroxy-1-phenylbutan-2-yl)carbamate] |  |  | 50 to 200 | < 100
CC/C=C\C/C=C\C/C=C\C/C=C\C/C=C\CCCC(=O)Nc1ccc(S(=O)(=O)N(CC(C)C)C[C@@H](O)[C@H](Cc2ccccc2)NC(=O)O[C@H]2CO[C@H]3OCC[C@H]32)cc1 [VII-2, (3R,3aS,6aR)-hexahydrofuro[2,3-b]furan-3-yl((2S,3R)-3-hydroxy-4-(4-((5Z,8Z,11Z,14Z,17Z)-icosa-5,8,11,14,17-pentaenamido)-N-isobutylphenylsulfonamido)-1-phenylbutan-2-yl)carbamate] |  | < 100 |  | 
